Assay [1] concerns the target T1, EED (1-441)-His protein (Homo sapiens, UniProt O75530).
T1 construct: 30 nM EED (1-441)-His protein
In words: EED-H3K27Me3 peptide competition binding assay by AlphaScreen. Particulars: read-out: (a) IC50 EED Alphascreen binding Qualified. In short, it runs like this: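 Serially diluted compound (12 points, 3-fold) incubated 20 min with 30 nM EED(1-441)-His and 15 nM biotin-H3K27Me3(19-33) peptide in 25 mM HEPES pH 8, 0.02% Tween-20, 0.5% BSA. Ni-chelate acceptor/streptavidin donor beads (10 μg/mL each) added, 1 h rt dark; 615 nm emission normalized to controls, dose-response fit for IC50.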
In general terms: In Alpha technology, singlet oxygen from a donor bead excites a nearby acceptor bead.

Assay [2] relates to H3K27 methylation in G401 cell. In words: ELISA (H3K27 methylation) assay in G401 cells. Format: cell-based, human. The note with it: Homo sapiens. The method in brief:
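IC50 from dose-response fit of percent inhibition relative to DMSO, using H3K27me3/me2 ELISA signal (ECL) normalized to histone H3. Histones HCl-extracted after 48 h compound exposure of G401 cells at up to 20 μM, 8- or 12-point 3-fold series.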

Assay [3] deals with wild type PRC2 (wtPRC2) complex (Homo sapiens, UniProt O75530). In words: EED LC-MS assay (SAH production by PRC2). The class given is biochemical. Particulars: read-out: (b) IC50 EED LC-MS Qualified. The method in brief: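 LC-MS/MS readout of SAH (d4-SAH standard) after TFA quench gives PRC2 activity, normalized to controls and fitted to dose-response for IC50. Reaction: 12 nM EZH2/SUZ12/EED/Rbap48/AEBP complex, 1 μM SAM, 1.5 μM H3[21-44] peptide, 120 min rt, 20 min compound preincubation.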
Chain of wild type PRC2 (wtPRC2) complex (O75530 whole entry): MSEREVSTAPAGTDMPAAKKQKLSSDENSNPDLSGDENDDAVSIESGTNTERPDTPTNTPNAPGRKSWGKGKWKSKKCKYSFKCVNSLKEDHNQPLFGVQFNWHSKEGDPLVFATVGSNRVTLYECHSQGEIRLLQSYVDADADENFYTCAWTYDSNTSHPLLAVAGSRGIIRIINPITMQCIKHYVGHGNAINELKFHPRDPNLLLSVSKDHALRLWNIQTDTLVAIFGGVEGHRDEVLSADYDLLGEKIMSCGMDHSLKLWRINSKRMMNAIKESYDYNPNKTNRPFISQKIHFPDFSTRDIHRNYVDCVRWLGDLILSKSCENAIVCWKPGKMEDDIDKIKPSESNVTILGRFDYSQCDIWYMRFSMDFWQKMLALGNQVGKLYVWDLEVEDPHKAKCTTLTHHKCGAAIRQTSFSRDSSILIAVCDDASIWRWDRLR
Chain of wild type PRC2 (wtPRC2) complex (Q15910 whole entry partner): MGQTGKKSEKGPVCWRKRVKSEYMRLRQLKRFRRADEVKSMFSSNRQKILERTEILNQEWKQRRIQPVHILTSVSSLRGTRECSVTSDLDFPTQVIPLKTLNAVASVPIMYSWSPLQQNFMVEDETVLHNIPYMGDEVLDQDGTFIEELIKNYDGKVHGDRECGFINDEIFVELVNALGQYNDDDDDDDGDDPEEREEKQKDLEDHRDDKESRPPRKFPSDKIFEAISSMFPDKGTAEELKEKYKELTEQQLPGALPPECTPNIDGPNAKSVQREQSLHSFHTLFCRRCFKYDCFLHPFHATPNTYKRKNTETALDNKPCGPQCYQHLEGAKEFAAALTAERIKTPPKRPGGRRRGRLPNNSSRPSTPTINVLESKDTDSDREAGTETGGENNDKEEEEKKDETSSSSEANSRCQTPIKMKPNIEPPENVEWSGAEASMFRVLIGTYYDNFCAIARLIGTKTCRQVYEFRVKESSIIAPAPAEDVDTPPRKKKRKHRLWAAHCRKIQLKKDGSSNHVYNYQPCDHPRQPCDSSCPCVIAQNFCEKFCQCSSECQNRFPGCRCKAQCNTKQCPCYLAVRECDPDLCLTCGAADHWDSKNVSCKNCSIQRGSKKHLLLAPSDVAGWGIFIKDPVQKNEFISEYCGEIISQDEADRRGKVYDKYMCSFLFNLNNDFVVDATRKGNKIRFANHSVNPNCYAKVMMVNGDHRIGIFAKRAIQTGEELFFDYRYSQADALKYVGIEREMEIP
Chain of wild type PRC2 (wtPRC2) complex (Q15022 whole entry partner): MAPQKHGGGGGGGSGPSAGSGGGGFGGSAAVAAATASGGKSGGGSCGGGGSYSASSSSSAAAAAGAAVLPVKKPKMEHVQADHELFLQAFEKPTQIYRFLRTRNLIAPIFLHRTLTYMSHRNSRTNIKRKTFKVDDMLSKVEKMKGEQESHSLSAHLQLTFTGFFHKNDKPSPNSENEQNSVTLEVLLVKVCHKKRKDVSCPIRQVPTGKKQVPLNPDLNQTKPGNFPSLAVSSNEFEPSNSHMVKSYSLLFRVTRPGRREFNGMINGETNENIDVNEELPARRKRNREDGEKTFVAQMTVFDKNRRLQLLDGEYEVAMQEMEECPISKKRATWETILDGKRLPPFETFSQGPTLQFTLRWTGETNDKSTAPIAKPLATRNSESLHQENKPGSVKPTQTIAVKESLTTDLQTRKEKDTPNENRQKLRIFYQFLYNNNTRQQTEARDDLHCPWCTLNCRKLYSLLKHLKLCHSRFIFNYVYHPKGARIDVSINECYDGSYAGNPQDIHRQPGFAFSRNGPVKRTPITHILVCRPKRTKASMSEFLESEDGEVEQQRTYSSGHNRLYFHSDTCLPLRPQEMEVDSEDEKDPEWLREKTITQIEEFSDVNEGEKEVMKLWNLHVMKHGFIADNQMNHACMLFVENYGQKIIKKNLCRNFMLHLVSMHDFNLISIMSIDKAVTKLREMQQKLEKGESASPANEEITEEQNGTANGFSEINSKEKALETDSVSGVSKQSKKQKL
Chain of wild type PRC2 (wtPRC2) complex (Q09028 whole entry partner): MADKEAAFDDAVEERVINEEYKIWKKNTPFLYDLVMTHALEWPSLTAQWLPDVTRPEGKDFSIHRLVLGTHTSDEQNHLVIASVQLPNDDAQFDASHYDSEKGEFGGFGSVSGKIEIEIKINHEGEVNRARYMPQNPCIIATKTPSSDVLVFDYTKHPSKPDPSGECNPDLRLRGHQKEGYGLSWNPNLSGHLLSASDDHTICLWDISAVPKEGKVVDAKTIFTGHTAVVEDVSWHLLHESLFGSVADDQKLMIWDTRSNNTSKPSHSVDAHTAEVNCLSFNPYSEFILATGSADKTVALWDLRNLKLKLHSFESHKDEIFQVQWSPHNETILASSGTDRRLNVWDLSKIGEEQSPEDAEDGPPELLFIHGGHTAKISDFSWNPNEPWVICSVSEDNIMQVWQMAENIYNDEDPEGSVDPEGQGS
Chain of wild type PRC2 (wtPRC2) complex (Q6ZN18 whole entry partner): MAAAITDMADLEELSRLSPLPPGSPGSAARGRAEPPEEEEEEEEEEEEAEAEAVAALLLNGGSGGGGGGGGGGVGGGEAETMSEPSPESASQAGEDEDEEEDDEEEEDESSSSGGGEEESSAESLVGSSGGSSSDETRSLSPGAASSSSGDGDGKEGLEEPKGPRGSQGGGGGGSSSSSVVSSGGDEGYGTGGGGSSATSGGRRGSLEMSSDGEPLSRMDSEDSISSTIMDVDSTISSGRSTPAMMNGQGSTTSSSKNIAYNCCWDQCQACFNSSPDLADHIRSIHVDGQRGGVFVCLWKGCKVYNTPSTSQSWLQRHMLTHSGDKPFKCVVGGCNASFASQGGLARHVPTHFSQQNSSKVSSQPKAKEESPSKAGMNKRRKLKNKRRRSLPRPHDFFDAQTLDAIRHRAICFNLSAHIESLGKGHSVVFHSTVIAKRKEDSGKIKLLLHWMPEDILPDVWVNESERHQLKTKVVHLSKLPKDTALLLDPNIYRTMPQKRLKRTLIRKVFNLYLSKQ

Where [4] appears, read: EED-H3K27Me3 peptide competition, AlphaScreen.
Setting [5] is: G-401, H3K27 methylation ELISA, read-out: (c) IC50 ELISA Qualified.

Like-named read-outs stand apart in the source and are kept apart here.

T1 sequence (O75530 whole entry): as the sequence (O75530 whole entry) above

Consider `COc1c(F)ccc(F)c1CNc1ccc(-c2ccc(S(C)(=O)=O)nc2C)c2nncn12` [Example 334, N-(3,6-difluoro-2-methoxybenzyl)-8-(2-methyl-6-(methylsulfonyl)pyridin-3-yl)-[1,2,4]triazolo[4,3-a] pyridin-5-amine], for which the figures for the half-inhibitory concentration (IC50) in assay [1] (setting [4]), in assay [2] (setting [5]) and in assay [3] (PRC2 LC-MS assay) were 38 nM, 31.6 nM and 144 nM, respectively.

As for `COc1cccc(Cl)c1CNc1ccc(-c2cccnc2C)c2nncn12` [Example 335, N-(2-chloro-6-methoxybenzyl)-8-(2-methylpyridin-3-yl)-[1,2,4]triazolo[4,3-a] pyridin-5-amine], the concentration for half-maximal inhibition (IC50) in assay [1] (setting [4]) is 84.5 nM; in assay [2] (setting [5]), 318 nM; in assay [3] (PRC2 LC-MS assay) it was 254 nM.

As to `COc1cccc(F)c1CNc1ccc(-c2cnn(C)c2CO)c2nncn12` [Example 336, (4-(5-((2-fluoro-6-methoxy benzyl)amino)-[1,2,4]triazolo[4,3-a]pyridin-8-yl)-1-methyl-1H-pyrazol-5-yl) methanol], the half-inhibitory concentration (IC50) in assay [1] (setting [4]) was 12.8 nM; in assay [2] (setting [5]) it was 12.1 nM; in assay [3] (PRC2 LC-MS assay) it was 59.5 nM.

In the case of `COc1cccc(F)c1CNc1ccc(-c2cc(C)ncc2C(F)F)c2nncn12` [Example 337, 8-(5-(difluoromethyl)-2-methylpyridin-4-yl)-N-(2-fluoro-6-methoxybenzyl)-[1,2,4]triazolo[4,3-a]pyridin-5-amine], the IC50 in assay [1] (setting [4]) worked out at 23.8 nM; in assay [2] (setting [5]), 43.1 nM; in assay [3] (PRC2 LC-MS assay), 166 nM.

On to `COc1cccc(F)c1CNc1ccc(-c2c(Cl)ccnc2C)c2nncn12` [Example 338, 8-(4-chloro-2-methylpyridin-3-yl)-N-(2-fluoro-6-methoxybenzyl)-[1,2,4]triazolo[4,3-a] pyridin-5-amine], for which the values for the IC50 in assay [1] (setting [4]), in assay [2] (setting [5]) and in assay [3] (PRC2 LC-MS assay) were 7.4 nM, 16.2 nM and 42.1 nM, respectively.

In the case of `COc1cccc(F)c1CNc1ccc(-c2ccc(CC#N)nc2C)c2nncn12` [Example 339, 2-(5-(5-((2-fluoro-6-methoxybenzyl)amino)-[1,2,4]triazolo[4,3-a]pyridin-8-yl)-6-methylpyridin-2-yl) acetonitrile], the values for the IC50 in assay [1] (setting [4]), in assay [2] (setting [5]) and in assay [3] (PRC2 LC-MS assay) were 6 nM, 6.7 nM and 20.9 nM, respectively.

`COc1cccc(F)c1CNc1ccc(-c2cccnc2C#N)c2nncn12` [Example 340, 3-(5-((2-fluoro-6-methoxybenzyl)amino)-[1,2,4]triazolo[4,3-a]pyridin-8-yl) picolinonitrile]: the values for the half-maximal inhibitory concentration (IC50) in assay [1] (setting [4]), in assay [2] (setting [5]) and in assay [3] (PRC2 LC-MS assay) were 12.5 nM, 25.5 nM and 523 nM, respectively.

Turning to `COc1cccc(F)c1CNc1ccc(-c2cccnc2CC#N)c2nncn12` [Example 341, 2-(3-(5-((2-fluoro-6-methoxybenzyl)amino)-[1,2,4]triazolo[4,3-a]pyridin-8-yl)pyridin-2-yl)acetonitrile], the results for the IC50 in assay [1] (setting [4]), in assay [2] (setting [5]) and in assay [3] (PRC2 LC-MS assay) were 21.6 nM, 21.9 nM and 95.5 nM, respectively.

In the case of `CCOc1ncc(-c2ccc(NCc3c(F)cc(F)cc3OC)n3cnnc23)c(C)n1` [Example 343, N-(2,4-difluoro-6-methoxybenzyl)-8-(2-ethoxy-4-methylpyrimidin-5-yl)-[1,2,4]triazolo[4,3-a]pyridin-5-amine], the results for the IC50 in assay [1] (setting [4]), in assay [2] (setting [5]) and in assay [3] (PRC2 LC-MS assay) were 25.7 nM, 36.5 nM and 492 nM, respectively.

For `COc1cccc(F)c1CNc1ccc(-c2cnccc2CO)c2nncn12` [Example 345, (3-(5-((2-fluoro-6-methoxy benzyl)amino)-[1,2,4]triazolo[4,3-a]pyridin-8-yl)pyridin-4-yl)methanol], the 50% inhibitory concentration (IC50) was determined as 7.6 nM in assay [1] (setting [4]), 10.4 nM in assay [2] (setting [5]) and 24.5 nM in assay [3] (PRC2 LC-MS assay).

With `COc1ncccc1CNc1ccc(-c2cnc(C)nc2C)c2nncn12` [Example 348, 8-(2,4-dimethylpyrimidin-5-yl)-N-((2-methoxypyridin-3-yl)methyl)-[1,2,4]triazolo [4,3-a]pyridin-5-amine], the half-inhibitory concentration (IC50) turned out to be 85.1 nM in assay [1]; 45.5 nM in assay [2] (G-401, read-out: (c) IC50 ELISA Qualified); 209 nM in assay [3].

What is called IC50 is the concentration that gives 50% inhibition.

The values are drawn from patent US10689378B2, “Triazolopyridine compounds and uses thereof” (Novartis AG, priority 2016, dated 2020).
